From PMC10175918 (Communications Biology, 2023)
Read-outs that look alike come from different tables or passages of the source.

How the values were obtained:
Assay in all cases: TGFα-shedding assay-based GPCR screening with chimeric Gα subunit proteins
Type in all cases: cell-based
348 GPCRs [1] = molecular target: T1, 348 GPCRs (Homo sapiens, UniProt P25089); conditions: 10µM, Favipiravir 100μM
T1 construct: expressed in transfected cells; host or cells: HEK293A
T1 sequence (P25089 1-353): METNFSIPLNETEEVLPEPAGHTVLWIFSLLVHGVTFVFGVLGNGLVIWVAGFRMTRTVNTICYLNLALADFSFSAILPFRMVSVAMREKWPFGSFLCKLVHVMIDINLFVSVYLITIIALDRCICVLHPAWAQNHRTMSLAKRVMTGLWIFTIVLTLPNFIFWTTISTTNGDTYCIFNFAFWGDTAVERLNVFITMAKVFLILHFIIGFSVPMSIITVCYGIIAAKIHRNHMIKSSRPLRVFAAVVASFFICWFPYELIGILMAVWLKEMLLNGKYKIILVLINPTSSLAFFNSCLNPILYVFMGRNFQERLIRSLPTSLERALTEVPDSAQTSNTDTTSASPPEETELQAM

348 GPCRs [2] = molecular target: T2, 348 GPCRs (Homo sapiens, UniProt P25101); conditions: 10µM, Favipiravir 100μM
T2 construct: expressed in transfected cells; host or cells: HEK293A
T2 sequence (P25101 21-427): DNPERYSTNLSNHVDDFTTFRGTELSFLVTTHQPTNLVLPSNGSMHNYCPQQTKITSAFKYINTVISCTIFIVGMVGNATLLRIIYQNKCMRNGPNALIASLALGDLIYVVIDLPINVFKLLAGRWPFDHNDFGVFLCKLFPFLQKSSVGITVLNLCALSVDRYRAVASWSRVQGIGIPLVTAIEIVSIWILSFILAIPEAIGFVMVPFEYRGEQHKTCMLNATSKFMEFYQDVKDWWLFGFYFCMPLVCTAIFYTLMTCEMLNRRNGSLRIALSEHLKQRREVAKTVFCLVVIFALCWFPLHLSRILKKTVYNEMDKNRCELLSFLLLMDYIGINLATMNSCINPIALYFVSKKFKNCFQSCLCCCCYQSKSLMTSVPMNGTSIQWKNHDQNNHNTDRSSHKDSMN

348 GPCRs [3] = molecular target: T3, 348 GPCRs (Homo sapiens, UniProt P25116); conditions: 10µM, Favipiravir 100μM
T3 construct: expressed in transfected cells; host or cells: HEK293A
T3 sequence (P25116 22-425): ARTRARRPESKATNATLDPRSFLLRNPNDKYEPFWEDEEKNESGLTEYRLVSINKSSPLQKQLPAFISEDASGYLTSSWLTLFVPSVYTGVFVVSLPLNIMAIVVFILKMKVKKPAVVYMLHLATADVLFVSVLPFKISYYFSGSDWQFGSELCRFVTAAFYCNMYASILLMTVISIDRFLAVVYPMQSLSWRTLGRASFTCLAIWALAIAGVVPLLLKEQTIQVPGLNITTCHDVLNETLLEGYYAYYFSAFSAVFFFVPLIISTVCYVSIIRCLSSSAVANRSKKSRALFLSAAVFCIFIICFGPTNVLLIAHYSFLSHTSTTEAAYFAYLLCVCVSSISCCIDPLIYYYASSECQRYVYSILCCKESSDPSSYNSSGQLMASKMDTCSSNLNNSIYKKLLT

348 GPCRs [4] = molecular target: T4, 348 GPCRs (Homo sapiens, UniProt P47893); conditions: 10µM, Favipiravir 100μM
T4 construct: expressed in transfected cells; host or cells: HEK293A
T4 sequence (P47893 1-321): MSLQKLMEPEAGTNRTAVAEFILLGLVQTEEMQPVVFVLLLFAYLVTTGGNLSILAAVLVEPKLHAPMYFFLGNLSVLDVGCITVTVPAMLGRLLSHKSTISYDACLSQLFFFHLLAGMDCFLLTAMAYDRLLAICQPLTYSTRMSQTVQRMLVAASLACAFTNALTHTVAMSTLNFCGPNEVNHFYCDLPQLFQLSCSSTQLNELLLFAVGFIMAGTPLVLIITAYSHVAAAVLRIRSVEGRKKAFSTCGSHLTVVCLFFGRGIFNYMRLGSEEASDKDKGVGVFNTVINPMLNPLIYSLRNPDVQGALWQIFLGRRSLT

348 GPCRs [5] = molecular target: T5, 348 GPCRs (Homo sapiens, UniProt Q969F8); conditions: 10µM, Favipiravir 100μM
T5 construct: expressed in transfected cells; host or cells: HEK293A

348 GPCRs [6] = molecular target: T6, 348 GPCRs (Homo sapiens, UniProt Q96G91)
T6 construct: expressed in transfected cells; host or cells: HEK293A
T6 sequence (Q96G91 1-374): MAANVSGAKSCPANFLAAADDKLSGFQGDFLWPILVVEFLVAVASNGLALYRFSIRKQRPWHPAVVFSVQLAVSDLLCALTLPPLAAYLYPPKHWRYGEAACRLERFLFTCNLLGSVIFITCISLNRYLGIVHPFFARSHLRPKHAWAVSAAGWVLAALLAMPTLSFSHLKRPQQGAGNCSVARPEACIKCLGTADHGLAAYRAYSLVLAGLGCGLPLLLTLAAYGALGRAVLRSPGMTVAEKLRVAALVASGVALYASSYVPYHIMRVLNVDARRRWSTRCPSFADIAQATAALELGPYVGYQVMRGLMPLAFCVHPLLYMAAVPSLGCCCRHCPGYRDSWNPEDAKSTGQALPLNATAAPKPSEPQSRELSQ

348 GPCRs [7] = molecular target: T7, 348 GPCRs (Homo sapiens, UniProt Q9NSD7); conditions: RXFP3 (relaxin/insulin-like family peptide receptor 3); 10µM, Favipiravir 100μM
T7 construct: expressed in transfected cells; host or cells: HEK293A
T7 sequence (Q9NSD7 1-469): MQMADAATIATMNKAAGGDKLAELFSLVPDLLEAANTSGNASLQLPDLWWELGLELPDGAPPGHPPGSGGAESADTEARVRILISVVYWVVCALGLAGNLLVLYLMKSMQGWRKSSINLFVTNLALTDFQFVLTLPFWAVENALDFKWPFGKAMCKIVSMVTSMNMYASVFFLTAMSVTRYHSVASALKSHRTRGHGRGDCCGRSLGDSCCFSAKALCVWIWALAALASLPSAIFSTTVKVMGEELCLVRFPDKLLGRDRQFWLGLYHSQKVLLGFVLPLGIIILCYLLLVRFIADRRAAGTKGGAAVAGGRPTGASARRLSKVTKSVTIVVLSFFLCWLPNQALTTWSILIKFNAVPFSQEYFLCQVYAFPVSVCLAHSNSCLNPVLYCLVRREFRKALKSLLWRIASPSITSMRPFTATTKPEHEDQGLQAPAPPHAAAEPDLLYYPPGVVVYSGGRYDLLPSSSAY

[8] = FPR3 (formyl peptide receptor 3), read-out: % GPCR activation compared to TPA
[9] = EDNRA (endothelin receptor type A), read-out: % GPCR activation compared to TPA
[10] = F2R (coagulation factor II (thrombin) receptor), read-out: % GPCR activation compared to TPA
[11] = OR3A2 (olfactory receptor, family 3, subfamily A, member 2), read-out: % GPCR activation compared to TPA
[12] = KISSPEPTIN-R (KISS1 Receptor), read-out: % GPCR activation compared to TPA
[13] = GPCR P2Y11 (purinergic receptor P2Y, G-protein coupled, 11), read-out: % GPCR activation compared to TPA
[14] = read-out: % GPCR activation compared to TPA, FPR3 (formyl peptide receptor 3)
[15] = read-out: % GPCR activation compared to TPA, EDNRA (endothelin receptor type A)
[16] = read-out: % GPCR activation compared to TPA, F2R (coagulation factor II (thrombin) receptor)
[17] = read-out: % GPCR activation compared to TPA, OR3A2 (olfactory receptor, family 3, subfamily A, member 2)
[18] = read-out: % GPCR activation compared to TPA, KISSPEPTIN-R (KISS1 Receptor)
[19] = read-out: % GPCR activation compared to TPA, GPCR P2Y11 (purinergic receptor P2Y, G-protein coupled, 11)

T5 sequence (Q969F8 whole entry): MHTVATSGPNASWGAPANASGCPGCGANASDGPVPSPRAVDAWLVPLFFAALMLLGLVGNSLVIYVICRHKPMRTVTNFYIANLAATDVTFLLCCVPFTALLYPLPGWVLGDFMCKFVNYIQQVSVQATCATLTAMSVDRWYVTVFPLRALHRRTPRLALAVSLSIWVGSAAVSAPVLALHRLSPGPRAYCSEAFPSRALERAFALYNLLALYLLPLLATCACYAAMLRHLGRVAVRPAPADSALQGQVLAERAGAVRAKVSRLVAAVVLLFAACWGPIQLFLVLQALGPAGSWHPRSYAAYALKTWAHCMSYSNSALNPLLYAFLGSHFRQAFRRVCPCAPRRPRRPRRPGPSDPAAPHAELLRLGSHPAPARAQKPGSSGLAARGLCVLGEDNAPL

Question: Which results are given for `N#C[C@@]1(c2ccc3c(N)ncnn23)O[C@H](CO)[C@@H](O)[C@H]1O` [GS441524]?
Answer: activation at 100 µM (348 GPCRs [1]; [8]): 2.5%; activation at 100 µM (348 GPCRs [2]; [9]): 2.17%; activation at 10 µM (348 GPCRs [3]; [10]): -1.57%; activation at 10 µM (348 GPCRs [4]; [11]): -9.89%; activation at 100 µM (348 GPCRs [5]; [12]): -2.31%; activation at 10 µM (348 GPCRs [6]; [13]): -16.3%; % GPCR activation compared to TPA (348 GPCRs [7]): 1.985%

Question: For `CCC(CC)COC(=O)[C@H](C)N[P@](=O)(OC[C@H]1O[C@@](C#N)(c2ccc3c(N)ncnn23)[C@H](O)[C@@H]1O)Oc1ccccc1` [remdesivir], which activation at 100 µM (348 GPCRs [1]; [14]) is on record?
Answer: 3.79%

Question: What about the activation at 100 µM (348 GPCRs [2]; [15]) of the same molecule?
Answer: -0.597%

Question: What about the activation at 10 µM (348 GPCRs [3]; [16]) of the same molecule?
Answer: -1.45%

Question: And the activation at 10 µM (348 GPCRs [4]; [17])?
Answer: -3.15%

Question: What about the activation at 100 µM (348 GPCRs [5]; [18]) of the same molecule?
Answer: -1.75%

Question: And the activation at 10 µM (348 GPCRs [6]; [19])?
Answer: -12.5%

Question: And the “% GPCR activation compared to TPA” value (348 GPCRs [7])?
Answer: 3.551%

Question: Which activation at 100 µM (348 GPCRs [1]; [14]) does the source give for `CC(C)OC(=O)[C@H](C)N[P@](=O)(OC[C@H]1O[C@@H](n2ccc(=O)[nH]c2=O)[C@](C)(F)[C@@H]1O)Oc1ccccc1` [sofosbuvir] here?
Answer: -0.773%

Question: What about the activation at 100 µM (348 GPCRs [2]; [15]) of the same molecule?
Answer: 2.91%

Question: And the activation at 10 µM (348 GPCRs [3]; [16])?
Answer: -1.12%

Question: And the activation at 10 µM (348 GPCRs [4]; [17])?
Answer: -1.07%

Question: And the activation at 100 µM (348 GPCRs [5]; [18])?
Answer: -1.38%

Question: And the activation at 10 µM (348 GPCRs [6]; [19])?
Answer: -20.5%

Question: What about the “% GPCR activation compared to TPA” value (348 GPCRs [7]) of the same molecule?
Answer: -2.192%

Question: For `NC(=O)c1nc(F)cnc1O` [favipiravir, 6-fluoro-3-hydroxy-2-pyrazinecarboxamide], which activation at 100 µM (348 GPCRs [1]; [8]) is on record?
Answer: 0.4%

Question: What about the activation at 100 µM (348 GPCRs [2]; [9]) of the same molecule?
Answer: 0.818%

Question: And the activation at 10 µM (348 GPCRs [3]; [10])?
Answer: -2.55%

Question: What about the activation at 10 µM (348 GPCRs [4]; [11]) of the same molecule?
Answer: -0.0334%

Question: What about the activation at 100 µM (348 GPCRs [5]; [12]) of the same molecule?
Answer: -3.52%

Question: And the activation at 100 µM (348 GPCRs [6]; GPCR P2Y11 (purinergic receptor P2Y, G-protein coupled, 11), 100μM, read-out: % GPCR activation compared to TPA)?
Answer: -11.1%

Question: What about the “% GPCR activation compared to TPA” value (348 GPCRs [7]) of the same molecule?
Answer: 1.399%

Question: Which activation at 100 µM (348 GPCRs [1]; [8]) does the source give for `CC(C)C(=O)OC[C@H]1O[C@@H](n2ccc(NO)nc2=O)[C@H](O)[C@@H]1O` [molnupiravir] here?
Answer: -1.95%

Question: And the activation at 100 µM (348 GPCRs [2]; [9])?
Answer: 0.536%

Question: And the activation at 10 µM (348 GPCRs [3]; [10])?
Answer: -0.992%

Question: And the activation at 10 µM (348 GPCRs [4]; [11])?
Answer: -0.408%

Question: What about the activation at 100 µM (348 GPCRs [5]; [12]) of the same molecule?
Answer: -4.04%

Question: And the activation at 10 µM (348 GPCRs [6]; [13])?
Answer: -21.8%

Question: And the “% GPCR activation compared to TPA” value (348 GPCRs [7])?
Answer: -2.923%
